Consider three compounds from patent US4238566A (priority 1980, dated 1980).

Type in all cases: biochemical
Assay [1] has as its target T1, Bovine milk xanthine oxidase (E.C. 1.2.3.2.), XO concentrate by prior art 2 (Waud et al. 1975), E280/E450 ratio 4.8 (Bos taurus, UniProt P80457).
T1 construct: Bovine milk XO was purified using three different methods; from tissue; host or cells: bovine milk (purified in-house by the method of Waud et al. 1975)
In words: Kinetic parameters (Km, Vmax, KI) of XO concentrate prepared by prior art method of Waud et al. The settings on record: for Vmax with xanthine / Vmax with hypoxanthine: XO by prior art 2. The method, then:
(§1) Bovine milk XO was purified using three different methods and the purified XO enzyme concentrate preparation from each method was assayed for its kinetic parameters.
(§2) The first method used was that of Horecker and Heppel (Methods in Enzymology, Vol. 2, pp. 482-485, 1955). […] The second method was that of Waud et al. (Arch. Biochem. and Biophys., Vol. 169, pp. 695-701, 1975). […] The third method was that described above for the preparation of the XO concentrate of this invention.
(§3) The concentration of the substrate was varied over a gradient of initial concentrations of one to nine millimolar. […] Three replicates of each assay were performed at each concentration of substrate. Buffer pH was monitored constantly and the percent oxygen saturation was maintained at approximately 75%. Lineweaver-Burk and Hanes plots were then constructed from the collected data.
(§4) Lineweaver-Burk and Hanes plots were constructed from the data and both Km and Vmax determined therefrom.
(§5) Experimental conditions for this part of the study were similar to the preceding experiments. […] From the collected data, Lineweaver-Burk plots for competitive inhibition were constructed.

Assay [2] concerns the target T2, Bovine milk xanthine oxidase (E.C. 1.2.3.2.), XO concentrate by prior art 1 (Horecker and Heppel 1955), E280/E450 ratio 6.1 (Bos taurus, UniProt P80457).
T2 construct: Bovine milk XO was purified using three different methods; from tissue; host or cells: bovine milk (purified in-house by the method of Horecker and Heppel 1955)
Kind of assay: Kinetic parameters (Km, Vmax, KI) of XO concentrate prepared by prior art method of Horecker and Heppel. The following applies: for Vmax with xanthine / Vmax with hypoxanthine: XO by prior art 1. On the procedure: as §1, §2, §3, §4, §5

Assay [3] addresses T3, Bovine milk xanthine oxidase (E.C. 1.2.3.2.), XO concentrate of this invention, E280/E450 ratio 2.0 to 4.1 (Bos taurus, UniProt P80457).
T3 construct: Bovine milk XO was purified using three different methods; from tissue; host or cells: bovine milk (purified in-house by the method of the invention)
In words: Kinetic parameters (Km, Vmax, KI) of XO concentrate of this invention. The following applies: for Vmax with xanthine / Vmax with hypoxanthine: XO of this invention. The method, then:
as §1, §2, §3, §4, §5

T2 sequence (P80457 whole entry): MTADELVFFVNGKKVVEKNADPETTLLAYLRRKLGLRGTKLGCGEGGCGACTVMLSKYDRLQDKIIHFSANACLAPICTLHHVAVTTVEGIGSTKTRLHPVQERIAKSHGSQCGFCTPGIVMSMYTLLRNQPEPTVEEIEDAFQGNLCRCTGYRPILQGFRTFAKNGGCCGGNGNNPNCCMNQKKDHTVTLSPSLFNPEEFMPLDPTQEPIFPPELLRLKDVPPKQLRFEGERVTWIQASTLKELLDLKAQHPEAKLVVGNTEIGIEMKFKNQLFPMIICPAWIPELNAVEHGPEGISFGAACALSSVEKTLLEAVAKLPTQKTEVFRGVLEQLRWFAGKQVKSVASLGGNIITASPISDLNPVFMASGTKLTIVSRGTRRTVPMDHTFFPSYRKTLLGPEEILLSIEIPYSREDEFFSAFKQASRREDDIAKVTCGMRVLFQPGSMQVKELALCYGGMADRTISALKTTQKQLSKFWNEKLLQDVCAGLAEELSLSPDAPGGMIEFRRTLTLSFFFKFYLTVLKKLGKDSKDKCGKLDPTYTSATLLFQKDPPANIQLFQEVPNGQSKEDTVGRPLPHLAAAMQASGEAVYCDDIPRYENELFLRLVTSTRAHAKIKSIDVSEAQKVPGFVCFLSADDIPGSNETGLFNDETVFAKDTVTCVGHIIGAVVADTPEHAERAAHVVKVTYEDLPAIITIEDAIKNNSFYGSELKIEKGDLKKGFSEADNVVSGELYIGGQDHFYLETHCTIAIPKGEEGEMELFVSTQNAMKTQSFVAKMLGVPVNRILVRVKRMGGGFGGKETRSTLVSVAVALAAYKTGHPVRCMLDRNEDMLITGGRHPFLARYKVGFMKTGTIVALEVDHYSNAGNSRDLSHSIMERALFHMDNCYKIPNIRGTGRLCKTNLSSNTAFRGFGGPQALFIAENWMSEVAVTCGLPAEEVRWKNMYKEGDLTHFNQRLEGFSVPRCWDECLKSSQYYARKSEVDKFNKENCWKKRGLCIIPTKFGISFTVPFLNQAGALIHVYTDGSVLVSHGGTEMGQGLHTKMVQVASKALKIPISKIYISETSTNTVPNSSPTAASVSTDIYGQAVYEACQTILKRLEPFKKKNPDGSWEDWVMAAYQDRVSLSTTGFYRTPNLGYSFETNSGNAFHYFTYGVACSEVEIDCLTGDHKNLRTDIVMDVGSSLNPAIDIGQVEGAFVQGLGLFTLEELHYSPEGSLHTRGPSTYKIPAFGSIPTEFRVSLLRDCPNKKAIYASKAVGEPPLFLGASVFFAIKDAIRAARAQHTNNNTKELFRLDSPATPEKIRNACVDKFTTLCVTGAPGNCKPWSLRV
T3 sequence (P80457 whole entry): as above
T1 sequence (P80457 whole entry): as above

What is called Ki is the dissociation constant of the complex between target and ligand, obtained from inhibition or displacement. As for `Nc1nc2ncc(CNc3ccc(C(=O)N[C@@H](CCC(=O)O)C(=O)O)cc3)nc2c(=O)[nH]1` [folic acid], the figures for the Ki in assay [1], in assay [2] and in assay [3] (read-out: KI with folic acid) were 1.69 µM, 1.79 µM and 1.15 µM, respectively.

On to `O=c1[nH]c(=O)c2[nH]cnc2[nH]1` [xanthine], for which the Vmax with xanthine in assay [1] (pH 8.3) worked out at 2.8 I.U; in assay [1] (pH 8.7), 2.16 I.U; in assay [2] (pH 8.3), 2.0 I.U; in assay [2] (pH 8.7), 2.03 I.U; in assay [3] (pH 8.3), 4.76 I.U; in assay [3] (pH 8.7), 3.125 I.U.

Turning to `O=c1[nH]cnc2nc[nH]c12` [hypoxanthine], the Vmax with hypoxanthine was 1.31 I.U in assay [1] (pH 8.3); 0.463 I.U in assay [1] (pH 8.7); 1.25 I.U in assay [2] (pH 8.3); 0.448 I.U in assay [2] (pH 8.7); 1.47 I.U in assay [3] (pH 8.3); 0.666 I.U in assay [3] (pH 8.7).
